# Measurements taken from BindingDB's records for doi:10.1021/acs.biochem.5b00135 (Northwestern University, 2015).
# Target: T1, Nitric oxide synthase, inducible (Mus musculus, UniProt P29477)
# T1 sequence (P29477 whole entry): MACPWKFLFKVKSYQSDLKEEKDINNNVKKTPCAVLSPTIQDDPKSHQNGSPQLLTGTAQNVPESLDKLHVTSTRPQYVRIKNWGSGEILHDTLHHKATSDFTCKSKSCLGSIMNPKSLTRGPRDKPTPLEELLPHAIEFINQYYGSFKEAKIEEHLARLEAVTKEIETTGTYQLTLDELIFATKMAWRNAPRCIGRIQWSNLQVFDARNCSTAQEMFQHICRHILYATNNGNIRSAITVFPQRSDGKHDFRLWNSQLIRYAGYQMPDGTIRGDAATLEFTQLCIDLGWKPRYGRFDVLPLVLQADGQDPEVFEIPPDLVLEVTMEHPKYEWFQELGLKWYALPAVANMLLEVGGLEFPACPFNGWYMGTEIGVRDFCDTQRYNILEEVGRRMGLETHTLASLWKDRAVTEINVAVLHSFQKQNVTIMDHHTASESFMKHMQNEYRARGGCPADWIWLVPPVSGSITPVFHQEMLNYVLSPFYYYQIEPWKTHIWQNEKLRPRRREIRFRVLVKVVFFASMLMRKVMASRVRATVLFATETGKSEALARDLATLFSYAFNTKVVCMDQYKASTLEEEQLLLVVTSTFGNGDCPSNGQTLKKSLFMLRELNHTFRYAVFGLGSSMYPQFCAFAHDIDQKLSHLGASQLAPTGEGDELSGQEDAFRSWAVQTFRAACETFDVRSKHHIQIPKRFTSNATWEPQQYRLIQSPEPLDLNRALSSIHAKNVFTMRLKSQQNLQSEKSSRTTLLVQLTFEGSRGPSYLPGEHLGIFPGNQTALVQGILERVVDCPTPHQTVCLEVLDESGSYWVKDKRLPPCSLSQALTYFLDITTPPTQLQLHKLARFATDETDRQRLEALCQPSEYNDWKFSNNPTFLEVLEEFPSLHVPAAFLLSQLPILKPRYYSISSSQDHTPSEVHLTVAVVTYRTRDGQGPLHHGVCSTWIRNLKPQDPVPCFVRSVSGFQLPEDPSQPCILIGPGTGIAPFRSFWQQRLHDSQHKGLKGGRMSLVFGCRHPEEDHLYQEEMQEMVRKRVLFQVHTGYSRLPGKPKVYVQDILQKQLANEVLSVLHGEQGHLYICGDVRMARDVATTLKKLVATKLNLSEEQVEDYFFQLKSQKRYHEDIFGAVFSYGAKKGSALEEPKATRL
# Experiment: Hemoglobin Assay
# Conditions: pH 7.4
# Method: The final volume was adjusted to 600 μL with 100 mM Hepes buffer (pH 7.4).
Compound,IC50,Ki
CCCC(=N)NCCC[C@H](N)C(=O)O [(S)-2-Amino-5-butyrimidamidopentanoic acid (9)],19.1 µM,8.61 µM
CC(C)C(=N)NCCC[C@H](N)C(=O)O [(S)-2-Amino-5-isobutyrimidamidopentanoic acid (10)],138 µM,65.2 µM
CC(C)(C)C(=N)NCCC[C@H](N)C(=O)O [(S)-2-Amino-5-pivalimidamidopentanoic acid (12)],323 µM,146 µM
CCC(=N)NCCC[C@H](N)C(=O)O [(S)-2-Amino-5-propionimidamidopentanoic acid (8)],16.1 µM,7.25 µM

# Compounds with a lower IC50, results first:
IC50,Ki,Compound
0.4 µM,0.18 µM,N=CNCCC[C@H](N)C(=O)O [(S)-2-Amino-5-formimidamidopentanoic acid (7)]
8.1 µM,,"CC(=N)NCCC[C@H](N)C(=O)O [(S)-5-Acetimidamido-2-aminopentanoic acid (4, L-NIO)]"
